Assay: gradient 5% acetonitrile 3 min, to 50% in 2 min, to 85% in 15 min, held 3 min, 100 µL/min
Settings: column: Zorbax Extend-C18 2.1 x 50 mm; eluents: water / acetonitrile, 0.1% formic acid
Summary of the method: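 The system's dead and dwell volumes were 40 μL and 900 μL, with a Zorbax Extend-C18 column (2.1 × 50 mm, 1.8 μm) run at 100 μL/min in water and acetonitrile containing 0.1% formic acid each. Pure standards were analyzed in mixtures of ~100 molecules by HPLC–quadrupole time-of-flight mass spectrometry in positive and negative ionization mode. Retention time was assigned from computationally picked, manually inspected adduct peaks.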

Structure (SMILES) | RP-LC retention time [s]
Cn1cc(C2=C(c3cn(C4CCN(Cc5ccccn5)CC4)c4ccccc34)C(=O)NC2=O)c2ccccc21 | 753
N#Cc1ccc(-c2nc(-c3ccc4c(c3)nnn4CCC(=O)N3CCOCC3)no2)cc1 | 786
COc1ccccc1CNC(=O)c1cn2c(n1)CCCC2 | 589
CC1=NS(=O)(=O)N(Cc2ccccc2)C=C1C(=O)OCc1cccc(C)c1 | 1140
CS(=O)(=O)N1CCC(C(=O)NC2CCCC(OC(=O)Nc3ccc(F)cc3)C2)CC1 (stereo not given) | 704
COc1cccc(N2CCN(c3nnc(-c4nnc(C)o4)c4ccccc34)CC2)c1 | 922
O=S(=O)(NCC1(c2cccs2)CCCC1)c1cccnc1 | 827
Fc1cccc(Cn2cc(-c3noc(C4CCCC4)n3)nn2)c1 | 1010
CCCN1CCN(C(=O)c2csc(N3CCN(c4ccc(OC)cc4)CC3)n2)CC1 | 626
O=C(NC1CC1)C1CCCN(S(=O)(=O)c2c[nH]c(C(=O)N3CCCCCC3)c2)C1 (stereo not given) | 702
CCN1CCC(Nc2ccnc3cc(Cl)ccc23)CC1 | 588
Cc1ccc(-c2nn3c(N4CCN(c5ccccn5)CC4)cc(C)nc3c2C)cc1 | 613
Cc1ccc(-n2ccc(=O)c(-c3nc(-c4ccccc4Br)no3)n2)cc1 | 950
Cn1nc(-c2nc(Cc3ccccc3)no2)c2c1CCN(C(=O)C(C)(C)C)C2 | 937
CC(=O)N1CCN(c2nc(CC(C)C)c3c(c2C#N)CC(C)(C)OC3)CC1 | 1060
CCC1(C(=O)NCc2ccc(C(C)C)cc2)CCCCC(=O)N1 (stereo not given) | 814
Cn1cccc1CN(C(=O)COc1ccc(Cl)cc1Cl)C1CC1 | 1040
CC1CNc2c(cccc2S(=O)(=O)N[C@@H](CCCN=C(N)N)C(=O)N2CC[C@@H](C)C[C@@H]2C(=O)O)C1 (stereo not given in full) | 822
COCC(=O)NC1CCC12CCN(C(=O)C1CCOCC1)CC2 (stereo not given) | 603

Structure (SMILES) | RP-LC retention time [s]
Cc1ccc(NC(=O)C2(Cc3ccccc3)CCCCC(=O)N2)cc1 (stereo not given) | 848
CN(C)C(=O)c1cn(C2CN(S(=O)(=O)c3ccc4c(c3)CCC4)C2)nn1 | 774
COc1ccc(CNC(=O)C2CCCN(c3nc4ccccc4n(Cc4ccccc4)c3=O)C2)cc1 (stereo not given) | 1090
CCn1nc(N2CCCC(NS(=O)(=O)c3cccc4cccnc34)C2)ccc1=O (stereo not given) | 736
CCc1cccc(C)c1Nc1c(-c2ccc(OC)c(OC)c2)nc2cnccn12 | 805
CCc1nnc(-c2cc(S(=O)(=O)NCCCc3ccccc3)cn2C)o1 | 864
Cc1cccc(N2CCN(C(=O)CN3CCN(Cc4ccccc4F)C3=O)CC2)c1 | 864
CC(C)NC(=O)c1ccc(OCC2CCCN(C(=O)c3ccc(F)c(Cl)c3)C2)cc1 (stereo not given) | 915
COCCNCc1ccc(-c2cccc(Cl)c2)o1 | 647
O=C(COc1ccc(-c2nnc3n2CCCC3)cc1)NCc1ccc2c(c1)OCO2 | 662
Cc1cccc(C2CC(=O)c3c(C)nc(N4CCN(CCO)CC4)nc3C2)c1 (stereo not given) | 665
COc1ccc(OCc2nc(-c3cccc(-c4ccnn4C)c3)no2)cc1 | 1010
COCCN1CC(CO)C2(CCN(Cc3ccc(Cl)cc3F)CC2)C1 (stereo not given) | 538
CC1CCCCC12NCCN=C2NCc1ccc(F)cc1 (stereo not given) | 603
CCN1C(=O)c2cccnc2Sc2cc(CNC(=O)COc3ccccc3)ccc21 | 798
CC(C)C(=O)Nc1ccc(-n2cnc(C(=O)NCc3ccc(Cl)cc3)c2)nc1 | 796
CC(=O)N1CCCN(C2=NS(=O)(=O)C(c3ccc(C)cc3)=C2C)CC1 | 699
COc1ccccc1-c1ccc(SCc2cccc(C)c2)nn1 | 1080
O=C(NCc1ccc(-c2noc(-c3n[nH]c4c3CCCC4)n2)s1)C1CC1 | 786

Structure (SMILES) | RP-LC retention time [s]
COC(=O)C1CCN(C(=O)c2csc(Nc3ncccn3)n2)CC1 | 644
Cc1noc(-c2ccc(=O)n(Cc3ccccc3F)n2)n1 | 794
CCOC(=O)Cn1nc2ccc(S(=O)(=O)N3CCC(C)CC3)cn2c1=O | 877
O=C(C1=CN(c2ccc(Oc3ccccc3)cc2)c2ccccc2S1(=O)=O)N1CCOCC1 | 913
COc1cccc(S(=O)(=O)N2CCC3(CC2)N(C2CCCC2)C(=O)CS3=O)c1 (stereo not given) | 780
CCn1c(=O)c(N2CCCC(C(=O)NCc3cc(Br)ccc3OC)C2)nc2ccccc21 (stereo not given) | 1140
Cn1c(=O)n(CC(=O)O)c(=O)c2c1nc1n2CCCN1c1ccc(Br)cc1 | 751
CCn1ncc(Cl)c1C(=O)N1CCCC1c1c(C)noc1C (stereo not given) | 734
Cc1ccc(CCNC(=O)C2CCCN(c3nnc(C)c4c(C)n(-c5ccc(C)cc5)nc34)C2)cc1 (stereo not given) | 815
O=C(NC1CCCCC1)C1CCCN(c2ccc(=O)n(-c3cccc(F)c3)n2)C1 (stereo not given) | 785
Cc1ccc(-c2nnc(N3CCC(C(=O)NCCN4CCOCC4)CC3)o2)cc1 | 614
CN1CCN(C(=O)c2cc3n(n2)CC(C)(C(=O)NCc2ccccc2)N(C)C3=O)CC1 (stereo not given) | 572
COc1ccc(S(=O)(=O)N2CCC(Cc3nncn3C)CC2)cc1 | 657
CCn1cc2c3c(cccc31)CN(C(=O)c1ccc(Br)o1)CC2 | 1050
Cc1ccc(Nc2c(-c3ccccc3)nc3cccc(C)n23)cc1 | 757
Cc1ccc(OCC(=O)N2CCC(c3noc(-c4cnccn4)n3)C2)cc1 (stereo not given) | 754
O=c1c(Cl)c(N2CCN(c3ccccn3)CC2)cnn1-c1nc2ccccc2s1 | 639
COc1cccc(CNC(=O)COc2ccc(NC(=O)C3CC3)cn2)c1OC | 591
O=C(NCc1ccccc1)C1Oc2ccccc2NC1=O (stereo not given) | 701

Further lines, results first:

RP-LC retention time [s] | Structure (SMILES)
887 | COc1cc(N2C=C(C#N)S(=O)(=O)c3ccc(C)cc32)cc(OC)c1OC
869 | O=C(Cc1csc2nc(-c3cccc(Br)c3)cn12)NCc1ccc2c(c1)OCO2
657 | CNC(=O)c1ccc(-c2nc3cc(NS(=O)(=O)c4ccc(C)cc4C)ccc3n2C)cc1
602 | Cc1nc(Nc2ccc(F)cn2)sc1C(=O)N1CCN(c2ccccn2)CC1
879 | CC(C)NC(=O)c1cc2cc(Br)ccc2[nH]1
786 | Cc1ccc(Cl)cc1NC(=O)C1CCN(S(=O)(=O)c2ccc3c(c2)NC(=O)CO3)CC1
831 | Cn1c(=O)oc2cc(-c3noc(-c4ccc(F)cc4)n3)ccc21
772 | Cc1cc(C)cc(S(=O)(=O)N2CCC3(CC2)NCCN=C3NCc2cccc(F)c2)c1
690 | CCCCN(C)c1ncc(C(=O)NCc2ccccc2)c(N)n1
1180 | CCN(CC)c1nc2cc(C(=O)OC)ccc2c(=O)n1Cc1ccc(F)cc1
693 | Cc1ccc(N(C)C(=O)Cn2ccc3c(=O)n(C)c(=O)n(C)c32)cc1C
891 | CCN1C(=O)c2ccccc2Oc2ccc(C(=O)NC3CCCC3)cc21
660 | COCCCNC(=O)c1ccc(-n2nc(C)c3c2CCCC3=O)cc1
604 | CN(C)CCNC(=O)c1ccc(CS(=O)Cc2ccc(Cl)cc2)o1 (stereo not given)
680 | CN(C)c1cccc(-c2nc(-c3ccc(CNC(=O)C4CC4)s3)no2)c1
983 | COc1ccc(NC(=O)CCCSc2ccc(F)cc2)c([N+](=O)[O-])c1
705 | Cc1ccc(-n2nnc(C(=O)O)c2C)c(F)c1

RP-LC retention time [s] | Structure (SMILES)
903 | CS(=O)(=O)N1CCC(C(=O)Nc2ccc(F)cc2)Oc2ccc(Cl)cc21 (stereo not given)
707 | O=C(NCc1ccc(F)cc1)C1CC(=O)N(c2n[nH]c3cccc(F)c23)C1 (stereo not given)
856 | Cn1c(=O)c2cc(C(=O)Nc3ccc4c(c3)OCCO4)cnc2n(-c2ccc(F)cc2)c1=O
745 | COc1ccc(NC(=O)NCC23CCC=C2N(C)C(=O)CC3)cc1 (stereo not given)
971 | CS(=O)(=O)N1CCCc2ccc(NC(=O)Nc3ccc(Cl)c(Cl)c3)cc21
861 | O=C(C1=CN(c2cc(F)cc(F)c2)c2cc(Cl)ccc2S1(=O)=O)N1CCCC1
723 | CCc1noc(NC(C)=O)c1-c1ccc(C)c(S(=O)(=O)N2CCN(c3ccccc3F)CC2)c1
822 | O=C(NCc1ccc(F)cc1Cl)C1CCN(C(=O)c2cc3ccsc3[nH]2)CC1
983 | Cc1sc2ccn(CC(C)C)c(=O)c2c1C(=O)NCc1ccc(F)cc1F
716 | O=C(Nc1cnc(N2CCCC2)nc1)c1cccc(F)c1
804 | Cc1cc(C)c(C(=O)N2CCC(CC(=O)NCc3cccc(Cl)c3)CC2)[nH]1
851 | COc1ccc(C(=O)N2CCC(COc3ccc(C(=O)NC(C)C)cc3)CC2)c(C)c1
613 | Cc1csc(NC(=O)CSc2nn3c(=O)c(C)nnc3s2)n1
812 | CC(C)N1C(=O)c2cccnc2Sc2cc(C(=O)NC3CCCC3)ccc21
715 | Cc1cc2[nH]c(C(=O)Nc3cc(F)cc(F)c3)c(CN(C)C)c2s1
763 | CCn1c(SC)nnc1-c1nn(C)c2c1CN(C(=O)c1ccc(F)cc1)CC2
